Read-outs that look alike come from different tables or passages of the source.

The test system of one assay is ScHOS2 deletion mutant. Briefly: Serial dilution sensitivity of yeast deletion strain to antifungal agents. It counts as cell-based, S. cerevisiae. The settings on record: FIGS. 4-12. An excerpt:
(§1) Standard serial dilution techniques were used to determine sensitivity of yeast deletion strains to various antifungal agents.

In a further assay the target is T1, recombinant Hos2p.V5His6 (Saccharomyces cerevisiae, UniProt P53096).
T1 construct: YGL194C/HOS2 from S. cerevisiae (residues 1-452 upstream the stop codon); made in house; host or cells: S. cerevisiae BY4742 or isogenic Δhos2 strain carrying pYES2.1.HOS2.V5His6 #7, galactose-induced
T1 sequence (P53096 whole entry, the tested form may be a part): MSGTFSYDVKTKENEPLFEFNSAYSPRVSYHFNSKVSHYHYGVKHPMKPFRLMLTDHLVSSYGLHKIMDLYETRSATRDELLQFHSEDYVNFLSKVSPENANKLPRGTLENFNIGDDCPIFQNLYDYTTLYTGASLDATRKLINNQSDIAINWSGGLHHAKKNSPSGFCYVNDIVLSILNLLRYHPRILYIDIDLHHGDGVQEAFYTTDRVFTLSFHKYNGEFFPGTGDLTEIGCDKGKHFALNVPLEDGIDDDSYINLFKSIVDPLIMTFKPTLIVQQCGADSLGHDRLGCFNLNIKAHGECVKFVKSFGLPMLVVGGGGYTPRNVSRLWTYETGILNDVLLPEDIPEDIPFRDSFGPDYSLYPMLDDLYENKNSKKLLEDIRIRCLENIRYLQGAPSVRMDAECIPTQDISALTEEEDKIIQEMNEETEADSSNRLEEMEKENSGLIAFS
Put plainly: HDAC assay with purified recombinant Hos2p.V5His6 fractions. It counts as biochemical, S. cerevisiae. To be noted: for IC50: read-out: IC50 (ug/ml). The protocol:
The induction of Hos2p.V5His6 expression by galactose was performed using either glucose or raffinose as the carbon source (pYES2.1 TOPO TA Expression Kit Manual, Invitrogen, cat. # K4150-01), Cell lysates were prepared from spheroplasts that had been generated from strains BY4742/pYES2.1.HOS2.V5His6 # 7 and Δhos2/pYES2.1.HOS2.V5His6 #7 grown in the presence or in the absence of galactose. Spheroplasts were prepared from cells that were grown in YEPD (BY4742, Δhos2), SC-URA+2% glucose or raffinose or SC-URA+1% glucose or raffinose+1% galactose (BY4742/pYES2.1.HOS2.V5His6 # 7 and Δhos2/pYES2.1.HOS2.V5His6 #7) by the lyticase method of Franzusoff et al. (1991). The collection of fractions containing or not Hos2pV5His6 was performed by IMAC using the H is GraviTrap Affinity Columns (GE Healthcare cat. # 11-033-99). Binding buffer was as recommended by the manufacturer, whereas three different elution buffers were used sequentially: 20 mM sodium phosphate+500 mM NaCl+100 mM, 250 mM or 500 mM imidazole, pH 7.4. Fractions were further desalted using PD-10 (GE Healthcare, cat. # 17-0851-01) and NAP-5 (GE Healthcare, cat. # 17-0853-02) desalting columns. Fractions that were eluted with the three different buffers containing 100, 250 or 500 mM imidazole, pH 7.4 and desalted were assayed for HDAC activity (see below). Only the corresponding fractions containing significant intrinsic HDAC activity (20 mM sodium phosphate+500 mM NaCl+250 mM imidazole) were kept for further studies.
Fractions containing the recombinant Hos2p.V5His6 were incubated for 2 h with or without HDAC inhibitor (0-20 μg/ml). The HDAC activity that was specifically associated with the recombinant Hos2p.V5His6 expressed following galactose induction was determined assuming that
FluoHos2p.V5His6 specific=Fluo+galactose−Fluo−galactose
where Fluo+galactose=HDAC activity associated with all HDACs copurified along with Hos2p.V5His6 Fluo+glucose=HDAC activity associated with all HDACs copurified in the absence of Hos2p.V5His6

The next assay has as its system HosB. The settings on record: cited from earlier work.
A further assay relates to Candida glabrata. The settings on record: cited from earlier work.
Another assay relates to C. albicans. The settings on record: cited from earlier work.
A further assay concerns A. nidulans Hda1 enzyme. The settings on record: cited from earlier work.
Another assay concerns ScRPD3 deletion mutant. Put plainly: Serial dilution sensitivity of yeast deletion strain to antifungal agents. To be noted: FIG. 3. It counts as cell-based, S. cerevisiae.
Source text: as §1

The subject of assay [1] is WT/ScHOS2 and Δhos2/ScHOS2. Briefly: MIC80 testing (CLSI M27-A2), complementation of Δhos2 by recombinant ScHos2p. To be noted: 72 hours, 30° C., FIG. 14. It counts as cell-based, S. cerevisiae. The protocol:
Minimum inhibitory concentration (MIC) testing was performed according to CLSI M27-A2 method for yeast testing using CSM-URA medium (Complete Synthetic Medium minus Uracile) containing either 2% raffinose or 1% raffinose+1% galactose as the carbon source. Itraconazole concentrations ranged from […]. Log-phase cells grown in CSM-URA+2% raffinose or CSM-URA+1% raffinose+1% galactose were inoculated at 5×10^3 cells/ml. The MIC80 of itraconazole was determined after 72 hours growth at 30° C.

`Nc1nc(=O)[nH]cc1F` [5-fluorocytosine]: the “hypersensitivity of ScHOS2 deletion mutant to antifungal agent” value with ScHOS2 deletion mutant is reported as “not hypersensitive”.
The same measure, in the same setting: as for `C[C@@H]1[C@H](O)[C@@H](C)/C=C/C=C/C=C/C=C/C=C/C=C/C=C/[C@H](O[C@@H]2O[C@H](C)[C@@H](O)[C@H](N)[C@@H]2O)C[C@@H]2O[C@](O)(C[C@@H](O)C[C@@H](O)[C@H](O)CC[C@@H](O)C[C@@H](O)CC(=O)O[C@H]1C)C[C@H](O)[C@H]2C(=O)O` [Amphotericin B], the entry is “not hypersensitive”.
Take `O=C(Cc1ccc(CCCCc2ccccc2)cc1)NO` [Compound 4]: the IC50 at recombinant Hos2p.V5His6 (Hos2 from S. cerevisiae BY4742/HOS2.V5His6 grown in glucose (GAL1 repressed) or galactose (induced)) is around 14.1 µM; on recombinant Hos2p.V5His6 (Hos2 from S. cerevisiae BY4742/HOS2.V5His6 grown in raffinose (GAL1 repressed) or galactose (induced)) it was around 10.6 µM; at recombinant Hos2p.V5His6 (Hos2 from S. cerevisiae Δhos2/HOS2.V5His6 grown in glucose (GAL1 repressed) or galactose (induced)), around 15.9 µM. In addition, the inhibition at 5 µg/mL on recombinant Hos2p.V5His6 (read-out: % inhibition at 5 μg/ml, Hos2 from S. cerevisiae BY4742/HOS2.V5His6 grown in glucose (GAL1 repressed) or galactose (induced), 5 μg/ml, 2 h) is 60.7%; at recombinant Hos2p.V5His6 (read-out: % inhibition at 5 μg/ml, Hos2 from S. cerevisiae BY4742/HOS2.V5His6 grown in raffinose (GAL1 repressed) or galactose (induced), 5 μg/ml, 2 h), 61.2%; on recombinant Hos2p.V5His6 (read-out: % inhibition at 5 μg/ml, Hos2 from S. cerevisiae Δhos2/HOS2.V5His6 grown in glucose (GAL1 repressed) or galactose (induced), 5 μg/ml, 2 h), 55.2%; on recombinant Hos2p.V5His6 (read-out: inhibition of purified Hos2 protein, 5 ug/ml, summary of Table 1), above 60%.
With `C[C@@H]1NC(=O)[C@H]2CCCN2C(=O)[C@H](CCCCCC(=O)[C@@H]2CO2)NC(=O)[C@@H](C)NC1=O` [HC toxin], in the assay on HosB, the “sensitivity of the enzyme to the HDAC inhibitor” value is “highly resistant”.
On to `CC(/C=C/C(=O)NO)=C\[C@@H](C)C(=O)c1ccc(N(C)C)cc1` [TSA, trichostatin A], for which the “sensitivity of the enzyme to the HDAC inhibitor” value with HosB is recorded as “highly resistant”; in the assay on A. nidulans Hda1 enzyme, “highly sensitive”. For the same compound, the “ability to enhance the sensitivity to azole antifungal agents” value is “not found to enhance the sensitivity” in the assay on Candida glabrata and “able to enhance the sensitivity” with C. albicans.
As to `CC(Cc1ccc(C(C)(C)C)cc1)CN1C[C@@H](C)O[C@@H](C)C1` (stereo partly drawn) [fenpropimorph], in the assay on ScHOS2 deletion mutant, the “hypersensitivity of ScHOS2 deletion mutant to antifungal agent” value was “hypersensitive”.
Turning to `OC(Cn1cncn1)(Cn1cncn1)c1ccc(F)cc1F` [fluconazole], the “hypersensitivity of ScHOS2 deletion mutant to antifungal agent” value in the assay with ScHOS2 deletion mutant is “hypersensitive”. Moreover, the “hypersensitivity of ScRPD3 deletion mutant to antifungal agent” value in the assay with ScRPD3 deletion mutant is reported as “not hypersensitive”.
On to `CCC(C)n1ncn(-c2ccc(N3CCN(c4ccc(OCC5COC(Cn6cncn6)(c6ccc(Cl)cc6Cl)O5)cc4)CC3)cc2)c1=O` (stereo not drawn) [itraconazole], for which the “difference in sensitivity (MIC80) between WT/ScHOS2 and Δhos2/ScHOS2” value in assay [1] (expression of Hos2 induced by galactose) is given as 2 fold; in assay [1] (grown in the presence of raffinose) it was 4 fold.
For `CC(=O)N1CCN(c2ccc(OCC3COC(Cn4ccnc4)(c4ccc(Cl)cc4Cl)O3)cc2)CC1` (stereo not drawn) [ketoconazole], the “hypersensitivity of ScHOS2 deletion mutant to antifungal agent” value in the assay with ScHOS2 deletion mutant is listed as “hypersensitive”. The “hypersensitivity of ScRPD3 deletion mutant to antifungal agent” value with ScRPD3 deletion mutant is on record as “not hypersensitive”.
Turning to `C[C@@H]([C@H](N)C(=O)N[C@H](C(=O)O)[C@H]1O[C@@H](n2ccc(=O)[nH]c2=O)[C@H](O)[C@@H]1O)[C@H](O)c1ccc(O)cn1` [nikkomycin], the “hypersensitivity of ScHOS2 deletion mutant to antifungal agent” value in the assay with ScHOS2 deletion mutant is reported as “not hypersensitive”.
Same read-out and setting: then `CN(C/C=C/C#CC(C)(C)C)Cc1cccc2ccccc12` [terbinazine], with “not hypersensitive”.
As to `C[C@@H](c1ncncc1F)[C@](O)(Cn1cncn1)c1ccc(F)cc1F` [voriconazole], the “hypersensitivity of ScHOS2 deletion mutant to antifungal agent” value in the assay with ScHOS2 deletion mutant is “hypersensitive”.

(Values after patent US20080139673A1, “POTENTIATION OF ANTIFUNGAL COMPOUNDS” (MethylGene Inc., priority 2006, published 2008).)
